{"source": "patent US20250326866A1", "about": "“TRANSFERRIN RECEPTOR TARGETING PEPTIDE OLIGONUCLEOTIDE COMPLEXES AND METHODS OF USE THEREOF” (Blaze Bioscience, Inc., priority 2021, published 2025)", "test_system": "CRE-driven luciferase", "assay": "CRE-luciferase reporter mice, in vivo brain luminescence", "settings": "4 hours after IP 1.68 mg rolipram and 0.84 mg forskolin given together", "from_the_text": "Transgenic mice expressing firefly luciferase under the control of a cyclic AMP response element (CRE) can be used. Under conditions of elevated cyclic AMP (cAMP) or other mechanisms that activate the transcription factor CRE Binding Protein 1 (CREB), cells in these mice can express luciferase, which can be measured in whole animal luminescence instrumentation (IVIS imager) after IV dosage with a luciferin formulated for animal use. Mice can be validated to express the transgene under proper response element control by dosing these mice with forskolin and rolipram, two drugs that stimulate neuronal cAMP production and inhibit its degradation (respectively). […]\nUnder conditions of elevated cyclic AMP (cAMP) or other mechanisms that activate the transcription factor CRE Binding Protein 1 (CREB), cells in these mice express luciferase, which are measured in whole animal luminescence instrumentation (IVIS imager) after IV dosage with a luciferin formulated for animal use. […]\nLuminescence was measured in anesthetized mice on a Xenogen IVIS instrument with a 1 min exposure. […] For the test peptides for comparison, identical regions of interest encompassing the entire brain were draw and quantified using LivingImage software (version 4.0, PerkinElmer, FIG. 16). […]\nTransgenic Mice were first dosed with luciferin and luminescence was measured (“unstimulated”).", "data": [{"smiles": "COc1ccc(C2CNC(=O)C2)cc1OC1CCCC1", "note": "(stereo not shown) [rolipram]", "values": [{"measurement": "CRE-Luc brain luminescence, positive control", "value": "high levels of luminescence"}]}]}
